Experimental data taken from ChEMBL document CHEMBL1134885, “Synthesis and thrombolytic activity of pseudopeptides related to fibrinogen fragment” (2002).
Square brackets hold non-standard residues; d marks the D form. Peptide text beside a SMILES is read from it. Tpi = O=C(O)[C@@H]1Cc2c([nH]c3ccccc23)CN1

Key:
Assay type in all cases: functional
[1] = system: Rattus norvegicus; experiment: The reduction of thrombolytic mass by the compound was calculated at a dose of 8 mg/kg
[2] = system: Rattus norvegicus; experiment: The reduction of thrombolytic mass by the compound was calculated at a dose of 7.4 mg/Kg
[3] = system: Rattus norvegicus; experiment: The reduction of thrombolytic mass by the compound was calculated at a dose of 5.4 mg/Kg
[4] = system: Rattus norvegicus; experiment: The reduction of thrombolytic mass by the compound was calculated at a dose of 5.3 mg/Kg
[5] = system: Rattus norvegicus; experiment: The reduction of thrombolytic mass by the compound was calculated at a dose of 7.2 mg/Kg
[6] = system: Rattus norvegicus; experiment: The reduction of thrombolytic mass by the compound was calculated at a dose of 6 mg/kg

Compound: C[C@H](NC(=O)[C@@H]1CCCN1C(=O)[C@H](CCCN=C(N)N)NC(=O)[C@H](CCC(N)=O)NC(=O)[C@@H]1Cc2c([nH]c3ccccc23)CN1)C(=O)N[C@@H](CCCCN)C(=O)O (H-[Tpi]QRPAK-OH)
- Activity [1]: 17.27 mg

Compound: C[C@H](NC(=O)[C@@H]1Cc2c([nH]c3ccccc23)CN1)C(=O)N[C@@H](CCCN=C(N)N)C(=O)N1CCC[C@H]1C(=O)N[C@@H](C)C(=O)N[C@@H](CCCCN)C(=O)O (H-[Tpi]ARPAK-OH)
- Activity [2]: 16.13 mg

Compound: H-ARPAK-OH
- Activity [3]: 18.84 mg

Compound: H-GRPAK-OH
- Activity [4]: 25.9 mg

Compound: C[C@H](NC(=O)[C@@H]1CCCN1C(=O)[C@H](CCCN=C(N)N)NC(=O)CNC(=O)[C@@H]1Cc2c([nH]c3ccccc23)CN1)C(=O)N[C@@H](CCCCN)C(=O)O (H-[Tpi]GRPAK-OH)
- Activity [5]: 19.7 mg

Compound: H-QRPAK-OH
- Activity [6]: 21.28 mg
